The test system of assay [1] is LPS triggered IL-10 secretion in monocytes. Kind of assay: Monocytes assay: LPS-triggered IL-10 (ELISA). The format is cell-based, human. The conditions noted are these: Homo sapiens, Monocyte, LPS-triggered IL-10 induction, median maximal fold change vs LPS only, read-out: IL-10 FCmax median. Summed up: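 CD14+ monocytes bead-isolated from human PBMCs, pretreated with compound 1 h at 37 °C (0.2% DMSO), then stimulated with LPS 200 ng/mL for 4 h. Supernatant IL-10 measured by chemiluminescent sandwich ELISA; fold change versus LPS only per concentration, reported as maximal fold change (FCmax).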

Assay [2] concerns LPS-induced TNFα in monocytes. The experiment in a line: Monocytes assay: LPS-triggered TNFα (ELISA). As to conditions: Homo sapiens, Monocyte, LPS-triggered TNFα inhibition. The format is cell-based, human. The method, boiled down: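 CD14+ monocytes were magnetically isolated from human buffy-coat PBMCs, preincubated with compound 1 h at 37 °C (0.2% DMSO), then stimulated with LPS at 200 ng/mL for 4 h. Supernatant TNFα was measured by luminescent sandwich ELISA; percentage inhibition was calculated against controls for each concentration.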

For assay [3], the target named is T1, SIK3 (Homo sapiens, UniProt Q9Y2K2).
T1 construct: purchased SignalChem S12-11G-100
The experiment in a line: ADP-Glo kinase assay, SIK3. The format is biochemical. Summed up:
(§1)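 Luminescent ADP-Glo readout of ADP formed. Enzyme-substrate mix with ATP, reaction 120 min at RT, then 40 min ATP depletion and 30 min detection. Controls were 1% DMSO (negative) and 10 μM staurosporine (positive), both final.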
On the technique in general: In ADP-Glo the light output rises with the ADP produced.

For assay [4], the target named is T2, SIK2 (Homo sapiens, UniProt Q9H0K1).
T2 construct: purchased ThermoFisher Scientific PV4792
The experiment in a line: ADP-Glo kinase assay, SIK2. The assay is classed as biochemical. The method, boiled down:
as §1

Drawing on patent US12391679B2, “Benzamide-substituted bicyclic imidazo- and pyrazolo-fused -pyridine, -pyrimide, and -pyridazine compounds for treatment of inflammatory diseases” (ONCO3R Therapeutics BV, priority 2019, dated 2025), this text covers maximal fold induction, EC50 and IC50 for 9 compounds.

T1 sequence (Q9Y2K2 59-365 limits assumed): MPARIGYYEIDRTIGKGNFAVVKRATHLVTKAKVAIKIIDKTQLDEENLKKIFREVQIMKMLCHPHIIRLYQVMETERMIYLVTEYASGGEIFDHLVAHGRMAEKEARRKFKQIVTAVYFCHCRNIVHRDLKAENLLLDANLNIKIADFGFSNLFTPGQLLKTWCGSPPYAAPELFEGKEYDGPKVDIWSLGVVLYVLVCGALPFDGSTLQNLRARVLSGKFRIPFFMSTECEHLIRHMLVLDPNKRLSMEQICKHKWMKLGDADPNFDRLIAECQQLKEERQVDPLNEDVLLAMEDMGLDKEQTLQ
T2 sequence (Q9H0K1 whole entry): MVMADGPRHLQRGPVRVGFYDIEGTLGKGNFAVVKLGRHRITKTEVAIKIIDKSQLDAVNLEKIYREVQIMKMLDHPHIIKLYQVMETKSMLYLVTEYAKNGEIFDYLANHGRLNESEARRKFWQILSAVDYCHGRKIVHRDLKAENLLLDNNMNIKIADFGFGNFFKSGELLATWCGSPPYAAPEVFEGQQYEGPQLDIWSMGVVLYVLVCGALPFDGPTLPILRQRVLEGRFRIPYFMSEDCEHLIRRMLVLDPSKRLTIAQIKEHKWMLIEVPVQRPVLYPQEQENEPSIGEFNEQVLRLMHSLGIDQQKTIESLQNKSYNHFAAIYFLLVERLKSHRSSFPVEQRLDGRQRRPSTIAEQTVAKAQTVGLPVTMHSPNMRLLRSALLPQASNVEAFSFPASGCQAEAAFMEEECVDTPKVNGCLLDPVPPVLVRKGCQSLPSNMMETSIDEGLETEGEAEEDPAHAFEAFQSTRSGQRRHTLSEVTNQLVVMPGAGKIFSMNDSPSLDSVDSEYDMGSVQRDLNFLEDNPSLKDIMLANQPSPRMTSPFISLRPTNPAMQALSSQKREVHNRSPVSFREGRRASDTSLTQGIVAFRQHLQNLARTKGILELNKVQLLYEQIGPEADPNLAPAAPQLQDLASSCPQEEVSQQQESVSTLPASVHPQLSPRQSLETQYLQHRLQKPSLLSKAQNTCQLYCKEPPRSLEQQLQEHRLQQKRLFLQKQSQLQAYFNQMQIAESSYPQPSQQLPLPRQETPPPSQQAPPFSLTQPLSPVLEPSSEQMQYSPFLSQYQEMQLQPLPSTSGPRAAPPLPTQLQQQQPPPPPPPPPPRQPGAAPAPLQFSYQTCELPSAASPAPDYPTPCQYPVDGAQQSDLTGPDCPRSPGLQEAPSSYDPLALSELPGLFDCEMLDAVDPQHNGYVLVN

A word on the EC50: it is the concentration needed to bring the measured effect to its halfway point. A low value points to greater potency. In general, IC50 refers to the concentration at which inhibition is half-maximal. A lower IC50 goes with greater potency. With `COc1cc(-c2cnn3cc(C4COC4)ccc23)cc(OC(F)F)c1C(=O)NC1CC1` [Cpd 216, N-cyclopropyl-2-(difluoromethoxy)-6-methoxy-4-[6-(oxetan-3-yl)pyrazolo[1,5-a]pyridin-3-yl]benzamide], the maximal fold induction in assay [1] is below 1.5. Also, in assay [2], the concentration for a half-maximal effect (EC50) was in the range of 100 to 1000 nM. Besides, the concentration for half-maximal inhibition (IC50) in assay [3] was in the range of 10 to 100 nM; in assay [4], 100 to 500 nM.
`COc1cc(-c2cnn3cc(C4COC4)ccc23)cc(OC(F)F)c1C(=O)N[C@@H]1C[C@@H]1F` [Cpd 218, 2-(difluoromethoxy)-N-[(1R,2S)-2-fluorocyclopropyl]-6-methoxy-4-[6-(oxetan-3-yl)pyrazolo[1,5-a]pyridin-3-yl]benzamide]: the maximal fold induction in assay [1] fell in the range of 1.5 to 4.5. Besides, the EC50 in assay [2] lay within 0.1 to 100 nM. Further, the IC50 in assay [3] lay in the range of 0.01 to 10 nM; in assay [4], 10 to 100 nM.
In the case of `COc1cc(-c2cnc3cc(C4(F)COC4)ccn23)cc(OC(F)F)c1C(=O)N[C@@H]1C[C@@H]1F` [Cpd 224, 2-(difluoromethoxy)-N-[(1R,2S)-2-fluorocyclopropyl]-4-[7-(3-fluorooxetan-3-yl)imidazo[1,2-a]pyridin-3-yl]-6-methoxy-benzamide], the maximal fold induction in assay [1] is 1.5 to 4.5. For the same compound, the EC50 in assay [2] was in the range of 100 to 1000 nM. Moreover, the IC50 in assay [3] lay within 0.01 to 10 nM; in assay [4], 10 to 100 nM.
Take `COc1cc(-c2cnn3cc(C(C)(C)O)ccc23)cc(OC(F)F)c1C(=O)N[C@@H]1C[C@@H]1F` [Cpd 227, 2-(difluoromethoxy)-N-[(1R,2S)-2-fluorocyclopropyl]-4-[6-(1-hydroxy-1-methyl-ethyl)pyrazolo[1,5-a]pyridin-3-yl]-6-methoxy-benzamide]: the maximal fold induction in assay [1] is below 1.5. In assay [2], the EC50 is 100 to 1000 nM. For the same compound, the IC50 in assay [3] was 0.01 to 10 nM; in assay [4] it was 100 to 500 nM.
With `COc1cc(-c2cnc3cc(C(C)(C)C#N)cnn23)cc(OC(F)F)c1C(=O)N[C@@H]1C[C@@H]1F` [Cpd 228, 4-[7-(1-cyano-1-methyl-ethyl)imidazo[1,2-b]pyridazin-3-yl]-2-(difluoromethoxy)-N-[(1R,2S)-2-fluorocyclopropyl]-6-methoxy-benzamide], in assay [1], the maximal fold induction was below 1.5. The compound also showed a concentration giving a half-maximal response (EC50) in assay [2] of 100 to 1000 nM. For the same compound, the 50% inhibitory concentration (IC50) in assay [3] was in the range of 0.01 to 10 nM; in assay [4], 100 to 500 nM.
Consider `COc1cc(-c2cnn3cc(C(C)(C)C#N)cnc23)cc(OC(F)F)c1C(=O)N[C@@H]1C[C@@H]1F` [Cpd 231, 4-[6-(1-cyano-1-methyl-ethyl)pyrazolo[1,5-a]pyrimidin-3-yl]-2-(difluoromethoxy)-N-[(1R,2S)-2-fluorocyclopropyl]-6-methoxy-benzamide], for which, in assay [1], the maximal fold induction was below 1.5. The EC50 in assay [2] lay within 100 to 1000 nM. The IC50 in assay [3] was 0.01 to 10 nM; in assay [4], above 500 nM.
For the compound `COc1cc(-c2cnn3cc(C4COCCO4)ccc23)cc(OC(F)F)c1C(=O)NC1CC1` (stereo not drawn) [Cpd 232, N-cyclopropyl-2-(difluoromethoxy)-4-[6-(1,4-dioxan-2-yl)pyrazolo[1,5-a]pyridin-3-yl]-6-methoxy-benzamide], in assay [1], the maximal fold induction is below 1.5. In assay [2], this compound came in with an EC50 of 100 to 1000 nM. In addition, the values for the 50% inhibitory concentration (IC50) in assay [3] and in assay [4] were 0.01 to 10 nM and 100 to 500 nM, respectively.
On the same counts, the results for `COc1cc(-c2cnn3cc(C(C)(C)CO)ccc23)cc(OC(F)F)c1C(=O)NC1CC1` [Cpd 236, N-cyclopropyl-2-(difluoromethoxy)-4-[6-(2-hydroxy-1,1-dimethyl-ethyl)pyrazolo[1,5-a]pyridin-3-yl]-6-methoxy-benzamide] are below 1.5, 100 to 1000 nM, 10 to 100 nM and above 500 nM.
As to `COc1cc(-c2cnn3cc(C4(C#N)CCOCC4)ccc23)cc(OC(F)F)c1C(=O)NC1CC1` [Cpd 237, 4-[6-(4-cyanotetrahydropyran-4-yl)pyrazolo[1,5-a]pyridin-3-yl]-N-cyclopropyl-2-(difluoromethoxy)-6-methoxy-benzamide], the maximal fold induction in assay [1] was below 1.5. Also, in assay [2], the half-maximal effective concentration (EC50) lay within 100 to 1000 nM. Moreover, the IC50 in assay [3] is 0.01 to 10 nM; in assay [4], above 500 nM.
